The values that follow come from publication PMC10057977, “Use of In Vivo Imaging and Physiologically-Based Kinetic Modelling to Predict Hepatic Transporter Mediated Drug–Drug Interactions in Rats” (Pharmaceutics, 2023).

Series [1] relates to MRP2. The settings on record: in vitro; bracket not explained in the table; ref 30,43-55 and in-house data from Merck & Co.; cited from earlier work.
The test system of series [2] is OATP1B3. Also noted: method as in earlier work. The settings on record: in vitro; ref 30,43-55 and in-house data from Merck & Co.; cited from earlier work.
The target of series [3] is rMrp2 (Rattus norvegicus, UniProt Q63120). It counts as in vivo. Also on record: from tissue; host or cells: liver of living male Wistar rats (Charles River Laboratories). The settings on record: for Simple Effect Size (95% CI) kbh: gadoxetate biliary efflux, control − treatment, positive = decrease, site G2. The source says:
(§1) The tracer-kinetic model was developed to enable estimation of rate constants of hepatobiliary efflux from DCE-MRI profiles in individual animals. In this approach, the liver was assumed to consist of two compartments, the extracellular space (e) and the hepatocytes (h). Since water exchanges rapidly between those spaces, the change in relaxation rate was a weighted average (Equation (4)). (4) ΔR1(t)=r1,e·ve·ce(t)+r1,h·vh·ch(t)
(§2) The proportionality constant, r1,τ [L⋅mmol^−1⋅s^−1] , is the relaxivity of the contrast agent for the compartment τ (extracellular space, e or hepatocytes, h) at the respective field strength, while vτ [mL/mL tissue] is the volume fraction of the compartment τ . Previously measured ex vivo r1,tau values for gadoxetate were used in this work, as per. The underlying assumptions of the PBPK and tracer-kinetic models, relating to physiological volumes and perfusion, are consistent, despite different parameterizations according to the purpose of each model. For example, Vliv,extr in the PBPK model is defined as an absolute volume (units = L; sum of liver plasma and interstitial volumes), while in the tracer-kinetic model, ve is a volume fraction (dimensionless), defined as Vliv,extr/Vliver , where Vliver is the total liver volume. While some analogy can be drawn between CLactive […], and CLbiliary and kbh, the interpretations are distinct. For example, the operating concentrations of the PBPK parameters CLactive […], and CLbiliary are the unbound concentrations of gadoxetate in plasma and hepatocytes, while the tracer-kinetic model is parameterized with respect to the total concentration of gadoxetate.
(§3) Since ce(t) is the input to the hepatocytes, and no backflux from hepatocytes to extracellular space is assumed, Equation (5) can be derived. (5) vh·ch(t)=e^−t/Th∗khe·ce(t) where Th is the mean transit time of gadoxetate in the hepatocytes [min] , and * is convolution. The extracellular space is assumed to be in equilibrium with the blood pool and therefore the concentration ce(t) is proportional to the concentration cp(t) in the plasma of the feeding artery, i.e., ce(t) = (1 − E)·cp(t), where E is the extraction fraction of gadoxetate in the liver. Combining this assumption with Equations (4) and (5), and using (1 − E)·khe = E·Fp, with Fp being the apparent plasma flow into the liver [mL/min/mL tissue volume] , gives Equation (6), the operational equation for gadoxetate DCE-MRI in the liver. (6) ΔR1(t)=(1−E)·ve·r1,p·cp(t)+E·Fp·r1,h ·e^−t/Th ∗cp(t)
(§4) The rate constants were derived as K^trans = E·Fp, khe = E·Fp/(1 − E), and kbh = vh/Th, with a literature value for vh. The plasma concentrations cp(t) were not reliably measured in small animals due to the small diameter of the main vessels compared to the resolution of the measurement. […] Therefore, the source term cp(t) was derived from a two-compartment pharmacokinetic model for gadoxetate (see Supplementary Material, Section S5), and a step function as input in the blood compartment. The parameters kbh and khe were fitted to the liver data using a model implementation in Python. For each rat considered in these studies, the rate constants K^trans, khe, and kbh were calculated, in both control and inhibitory phases. The rate constants of the control and inhibitory phases were compared via calculation of simple (unstandardized) effect sizes (i.e., simple effect size = μcontrol − μtreatment, where μ is the mean average of all subjects) at the 95% confidence level. Statistical significance was assessed through a two-sided paired t-test, with p < 0.05 considered significant.

For series [4], the target named is T1, rOatp1b (Rattus norvegicus, UniProt Q9QZX8).
T1 construct: from tissue; host or cells: liver of living male Wistar rats (Charles River Laboratories)
T1 sequence (Q9QZX8 1-687): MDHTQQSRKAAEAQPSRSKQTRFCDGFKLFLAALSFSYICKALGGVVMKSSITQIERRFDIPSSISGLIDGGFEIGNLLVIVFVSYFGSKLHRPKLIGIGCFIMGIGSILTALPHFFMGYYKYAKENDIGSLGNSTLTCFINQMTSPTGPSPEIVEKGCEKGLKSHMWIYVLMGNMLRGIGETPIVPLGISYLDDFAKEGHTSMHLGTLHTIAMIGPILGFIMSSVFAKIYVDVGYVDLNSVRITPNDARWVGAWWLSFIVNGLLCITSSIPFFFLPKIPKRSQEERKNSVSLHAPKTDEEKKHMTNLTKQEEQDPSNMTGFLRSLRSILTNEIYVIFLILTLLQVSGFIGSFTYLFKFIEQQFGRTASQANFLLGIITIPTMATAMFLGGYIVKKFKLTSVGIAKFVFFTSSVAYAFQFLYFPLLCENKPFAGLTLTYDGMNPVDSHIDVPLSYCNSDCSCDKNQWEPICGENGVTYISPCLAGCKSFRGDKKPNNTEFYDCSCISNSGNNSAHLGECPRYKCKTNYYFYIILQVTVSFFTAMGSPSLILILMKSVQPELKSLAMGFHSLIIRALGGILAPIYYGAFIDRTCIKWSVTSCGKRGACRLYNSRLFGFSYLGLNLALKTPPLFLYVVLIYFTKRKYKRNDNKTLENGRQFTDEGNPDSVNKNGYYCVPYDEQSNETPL
It counts as in vivo. The settings on record: for Simple Effect Size (95% CI) K^trans: gadoxetate hepatic plasma clearance; for Simple Effect Size (95% CI) K^trans / Simple Effect Size (95% CI) khe: control − treatment, positive = decrease; for Simple Effect Size (95% CI) khe: gadoxetate hepatic uptake.
Text: as §1, §2, §3
as §4, with “The rate constants of the control and inhibitory phases were compared via calculation of simple (unstandardized) effect sizes (i.e., simple effect size = μcontrol − μtreatment, where μ is the mean average of all subjects) at the 95% confidence level.” left out

For series [5] the following is noted: cited from earlier work.
For series [6] the following is noted: fraction unbound in plasma; cited from earlier work.
[7] abbreviates: pioglitazone 0.4 mg/kg iv, site E.

Each structure is given as a SMILES string. Read-outs that look alike come from different tables or passages of the source. Where only a bound is given, the exact number is not on record here.

Sequence of rMrp2 (Q63120 whole entry): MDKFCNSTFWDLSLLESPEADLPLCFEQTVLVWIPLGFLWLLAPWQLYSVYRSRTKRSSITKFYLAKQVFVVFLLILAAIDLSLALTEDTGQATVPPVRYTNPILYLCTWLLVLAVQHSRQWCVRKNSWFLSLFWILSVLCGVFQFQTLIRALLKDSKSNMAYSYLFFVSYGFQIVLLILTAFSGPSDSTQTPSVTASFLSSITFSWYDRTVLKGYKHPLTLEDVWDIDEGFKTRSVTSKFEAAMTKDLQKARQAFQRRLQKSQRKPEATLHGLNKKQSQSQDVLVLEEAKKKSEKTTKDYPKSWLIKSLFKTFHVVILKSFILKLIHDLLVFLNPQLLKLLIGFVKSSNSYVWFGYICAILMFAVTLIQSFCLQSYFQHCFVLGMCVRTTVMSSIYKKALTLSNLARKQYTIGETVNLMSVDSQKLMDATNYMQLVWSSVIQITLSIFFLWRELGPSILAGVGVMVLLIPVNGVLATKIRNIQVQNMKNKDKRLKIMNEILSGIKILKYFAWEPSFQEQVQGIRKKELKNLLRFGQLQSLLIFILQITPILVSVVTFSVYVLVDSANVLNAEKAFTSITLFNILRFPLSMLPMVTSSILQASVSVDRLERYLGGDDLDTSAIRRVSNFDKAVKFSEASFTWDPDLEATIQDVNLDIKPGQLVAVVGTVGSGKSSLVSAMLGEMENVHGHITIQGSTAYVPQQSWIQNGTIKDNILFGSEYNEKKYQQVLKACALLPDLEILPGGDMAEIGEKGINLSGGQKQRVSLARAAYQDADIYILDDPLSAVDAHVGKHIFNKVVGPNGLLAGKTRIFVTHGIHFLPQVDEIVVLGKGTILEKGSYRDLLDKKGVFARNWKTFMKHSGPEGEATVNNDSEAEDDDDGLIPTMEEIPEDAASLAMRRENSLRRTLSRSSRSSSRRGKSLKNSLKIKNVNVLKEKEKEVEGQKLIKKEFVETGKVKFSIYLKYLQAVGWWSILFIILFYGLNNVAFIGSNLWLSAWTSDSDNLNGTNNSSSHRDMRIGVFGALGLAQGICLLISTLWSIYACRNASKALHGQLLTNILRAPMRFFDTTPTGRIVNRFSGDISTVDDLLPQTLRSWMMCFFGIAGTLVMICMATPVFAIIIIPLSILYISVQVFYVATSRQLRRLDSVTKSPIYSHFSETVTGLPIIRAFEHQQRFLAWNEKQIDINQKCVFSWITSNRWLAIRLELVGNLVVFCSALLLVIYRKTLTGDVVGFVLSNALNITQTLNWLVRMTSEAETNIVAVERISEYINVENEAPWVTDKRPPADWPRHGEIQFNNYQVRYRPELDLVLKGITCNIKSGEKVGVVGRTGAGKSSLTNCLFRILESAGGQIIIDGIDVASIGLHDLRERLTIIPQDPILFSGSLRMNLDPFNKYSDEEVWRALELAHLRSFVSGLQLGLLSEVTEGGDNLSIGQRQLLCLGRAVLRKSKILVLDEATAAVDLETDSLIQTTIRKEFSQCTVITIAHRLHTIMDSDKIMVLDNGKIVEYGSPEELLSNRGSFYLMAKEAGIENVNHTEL

By IC50 is commonly meant the concentration at which inhibition is half-maximal. For the compound `C=C[C@@H]1C[C@]1(NC(=O)[C@@H]1C[C@@H](Oc2ncc(OC)c3ccc(Cl)cc23)CN1C(=O)[C@@H](NC(=O)OC(C)(C)C)C(C)(C)C)C(=O)NS(=O)(=O)C1CC1` [Asunaprevir], the 50% inhibitory concentration (IC50) in series [1] is 4 µM. Further, in series [2], the IC50 is 0.65 µM. Further, the “decrease in gadoxetate kbh” value in series [3] (rat, asunaprevir 5 mg/kg iv) amounted to 31%. For the same compound, in series [4] (asunaprevir 5 mg/kg iv, site E), the “Simple Effect Size (95% CI) K^trans” value is listed as 0.24 (−0.01, 0.48) mL/min/mL liver and the “Simple Effect Size (95% CI) khe” value is listed as 2.34 (−0.92, 5.60) mL/min/mL liver. For the same compound, the Cmax in series [5] (human plasma, daily dose 200 mg (asunaprevir), read-out: Cmax (µM) [Daily Dose]) was 0.76 µM.
For the compound `COc1ccccc1Oc1c(NS(=O)(=O)c2ccc(C(C)(C)C)cc2)nc(-c2ncccn2)nc1OCCO` [Bosentan], the fu in series [6] is <0.02. Further, the IC50 was > 100 µM in series [1] and 5.2 µM in series [2]. Further, the “Simple Effect Size (95% CI) kbh” value in series [3] (bosentan 4–6 mg/kg iv) is recorded as 0.02 (−0.02, 0.07) mL/min/mL liver. The “Simple Effect Size (95% CI) K^trans” value in series [4] (bosentan 2 mg/kg iv, site G1, subjects 3, 4, 6 excluded) is recorded as 0.28 (−0.32, 0.88) mL/min/mL liver; in series [4] (bosentan 4–6 mg/kg iv, site G2) it was 0.07 (−0.12, 0.26) mL/min/mL liver. The “Simple Effect Size (95% CI) khe” value in series [4] (bosentan 2 mg/kg iv, site G1, subjects 3, 4, 6 excluded, khe physiologically implausible) was −54.22 (−197.97, 89.53) mL/min/mL liver; in series [4] (bosentan 4–6 mg/kg iv, site G2) it was 1.07 (−1.13, 3.26) mL/min/mL liver. For the same compound, the Cmax in series [5] (human plasma, daily dose 250 mg, read-out: Cmax (µM) [Daily Dose]) was 3.3 µM.
As to `CCc1ccc(CCOc2ccc(CC3SC(=O)NC3=O)cc2)nc1` (centres unmarked) [Pioglitazone], the fu in series [6] is given as <0.01. Besides, the 50% inhibitory concentration (IC50) in series [1] is > 133 µM; in series [2] it was 3.41 µM. The “decrease in gadoxetate kbh” value in series [3] (rat, pioglitazone 0.4 mg/kg iv) is 19%. Moreover, in series [4] (setting [7]), the “Simple Effect Size (95% CI) K^trans” value was 0.13 (−0.05, 0.32) mL/min/mL liver. The “Simple Effect Size (95% CI) khe” value in series [4] (setting [7]) is reported as 1.21 (−0.10, 2.51) mL/min/mL liver. The Cmax in series [5] (human plasma, daily dose 30 mg, read-out: Cmax (µM) [Daily Dose]) was 4.8 µM.
A word on the Ki: it is a measure of affinity in units of concentration, obtained from inhibition or displacement. For the compound `CO[C@H]1/C=C/O[C@@]2(C)Oc3c(C)c(O)c4c(O)c(c(/C=N/N5CCN(C)CC5)c(O)c4c3C2=O)NC(=O)/C(C)=C\C=C\[C@H](C)[C@H](O)[C@@H](C)[C@@H](O)[C@@H](C)[C@H](OC(C)=O)[C@@H]1C` [Rifampicin], the fu in series [6] is 0.2. Further, the IC50 in series [1] is 55 µM; in series [2], 0.11 µM. The Ki in series [1] was 24.3 µM. Moreover, the “Simple Effect Size (95% CI) kbh” value in series [3] (** p < 0.01, rifampicin 2 mg/kg iv) is 0.07 mL/min/mL liver. The “Simple Effect Size (95% CI) khe” value in series [4] (* p < 0.05, rifampicin 2 mg/kg iv, site G2) is 7.20 mL/min/mL liver. Further, the Cmax in series [5] (human plasma, daily dose 600 mg, read-out: Cmax (µM) [Daily Dose]) is 0.85 µM; in series [5] (human, ref supplement [17], read-out: typical maximum plasma concentration (Cmax) in clinical studies), 4 to 20 µM.
With `CCOc1ccc(C[C@@H](CN(CCN(CC(=O)[O-])CC(=O)[O-])CC(=O)[O-])N(CC(=O)[O-])CC(=O)[O-])cc1.[Gd+3].[H+].[H+]` [gadoxetate, Gadoxetate], in series [3] (rat, in vivo), the “kbh, new value in unified units” value is on record as 1.19 mL/min and the “kbh, original value” stood at 0.14 mL/ min/ mL tissue volume. Besides, in series [4] (rat, in vivo), the “hepatic extraction ratio (E)” value was > 0.95; the “khe, new value in unified units” value stood at 11.1 mL/min; the “khe, original value” amounted to 1.31 mL/ min/ mL tissue volume.
